Test results taken from ChEMBL document CHEMBL1201862, “PubChem BioAssay data set” (2004).
The source made the active and inactive calls.

What was measured:
[1] = target: Peroxisome proliferator-activated receptor gamma/Nuclear receptor coactivator 2 (Homo sapiens, UniProt P37231); assay type: functional;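 also: agonist potency for raising coactivator recruitment to the receptor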
[2] = target: Peroxisome proliferator-activated receptor gamma/Nuclear receptor coactivator 1 (Homo sapiens, UniProt P37231); assay type: functional;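 also: agonist potency as compounds enhance coactivator SRC-1 recruitment to PPARgamma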
[3] = target: Peroxisome proliferator-activated receptor gamma/Nuclear receptor coactivator 3 (Homo sapiens, UniProt P37231); assay type: functional;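 also: agonist potency for raising coactivator recruitment to the receptor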
[4] = Luminescence-based cell-based high throughput dose response assay to identify activators of the DAF-12 from the parasite S. stercoralis (ssDAF-12).; assay type: functional
[5] = target: T1, Oxysterols receptor LXR-beta (Homo sapiens, UniProt P55055); experiment: LXR agonists, Gal4 luciferase reporter, dose response, counter-screen for ssDAF-12 agonist project, cell-based, luminescence, HEK293, S. stercoralis campaign (AID 720737); assay type: functional; details: read-out: IC50 (the source's name)
T1 sequence (P55055 whole entry): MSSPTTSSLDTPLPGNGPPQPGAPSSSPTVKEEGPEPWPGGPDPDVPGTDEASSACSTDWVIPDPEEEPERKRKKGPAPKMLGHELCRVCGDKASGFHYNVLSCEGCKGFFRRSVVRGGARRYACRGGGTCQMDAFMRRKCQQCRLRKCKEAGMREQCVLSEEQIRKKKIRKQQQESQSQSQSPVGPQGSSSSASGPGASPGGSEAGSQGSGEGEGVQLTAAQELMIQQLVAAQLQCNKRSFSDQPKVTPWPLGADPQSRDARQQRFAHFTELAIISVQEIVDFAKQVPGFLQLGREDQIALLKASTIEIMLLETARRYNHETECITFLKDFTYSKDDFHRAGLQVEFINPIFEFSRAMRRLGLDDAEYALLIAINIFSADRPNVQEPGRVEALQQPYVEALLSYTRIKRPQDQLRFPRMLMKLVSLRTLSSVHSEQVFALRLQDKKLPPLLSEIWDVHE

[6] = Luminescence Cell-Based Dose Confirmation HTS to Identify Inhibitors of Polyadenylation.; assay type: functional
[7] = target: T2, Epstein-Barr nuclear antigen 1 (Epstein-Barr virus (strain B95-8) (HHV-4) (Human herpesvirus 4), UniProt P03211); experiment: EBNA-1 inhibitors, dose response, biochemical, fluorescence polarization, 1536-well (AID 2381); design: species or system human gammaherpesvirus 4;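 also: fluorescence polarization of a Cy5 DNA probe bound by EBNA-1 protein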
T2 sequence (P03211 whole entry): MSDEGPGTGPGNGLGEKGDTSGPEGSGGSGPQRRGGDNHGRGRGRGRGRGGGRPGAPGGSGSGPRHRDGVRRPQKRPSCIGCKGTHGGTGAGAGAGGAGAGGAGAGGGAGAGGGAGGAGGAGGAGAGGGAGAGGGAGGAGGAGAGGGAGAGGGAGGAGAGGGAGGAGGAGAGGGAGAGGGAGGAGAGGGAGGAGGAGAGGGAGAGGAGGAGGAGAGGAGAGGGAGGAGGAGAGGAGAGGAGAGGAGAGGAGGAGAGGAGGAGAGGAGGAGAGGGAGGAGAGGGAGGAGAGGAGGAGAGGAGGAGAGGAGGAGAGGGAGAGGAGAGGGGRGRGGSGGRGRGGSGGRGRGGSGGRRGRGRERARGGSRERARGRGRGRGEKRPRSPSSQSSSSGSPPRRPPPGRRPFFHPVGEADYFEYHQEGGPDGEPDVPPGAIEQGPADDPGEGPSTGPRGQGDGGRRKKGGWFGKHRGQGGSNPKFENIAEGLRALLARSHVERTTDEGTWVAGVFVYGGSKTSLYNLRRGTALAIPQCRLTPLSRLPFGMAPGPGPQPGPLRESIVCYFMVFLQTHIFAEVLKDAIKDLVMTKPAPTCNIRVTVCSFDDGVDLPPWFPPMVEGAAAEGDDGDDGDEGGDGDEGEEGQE

[8] = target: T3, Lytic switch protein BZLF1 (Epstein-Barr virus (strain B95-8) (HHV-4) (Human herpesvirus 4), UniProt P03206); experiment: EBV ZTA inhibitors, dose response, counter-screen for EBNA-1 inhibitor project, biochemical, fluorescence polarization, Epstein-Barr virus, 1536-well (AID 2377); design: species or system human gammaherpesvirus 4;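 also: fluorescence polarization of Cy5-labelled ZRE DNA probe bound by purified Zta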
T3 sequence (P03206 whole entry): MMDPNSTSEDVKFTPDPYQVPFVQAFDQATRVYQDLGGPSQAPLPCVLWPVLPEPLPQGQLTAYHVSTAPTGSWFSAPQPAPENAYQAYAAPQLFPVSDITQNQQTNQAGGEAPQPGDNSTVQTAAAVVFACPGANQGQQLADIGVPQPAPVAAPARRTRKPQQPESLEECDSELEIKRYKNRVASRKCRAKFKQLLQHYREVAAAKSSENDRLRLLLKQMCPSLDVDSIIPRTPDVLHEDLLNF

[9] = target: T4, Luciferin 4-monooxygenase (Photinus pyralis, UniProt P08659); experiment: firefly luciferase enzyme inhibitors, dose response, biochemical, luminescence (AID 1891)
[10] = Luminescence Cell-Based Dose Confirmation HTS to Identify Inhibitors of Platelet Dense Granule Release. [Related pubchem assays: 1663 (Primary HTS), 1678 (Summary of Project)]; assay type: functional
[11] = target: T1, Oxysterols receptor LXR-beta; assay type: functional, cell-based
[12] = target: T4, Luciferin 4-monooxygenase; experiment: Counter Screen for Luciferase-based Assay Positives. [Related pubchem assays: 620, 618, 411 ]
HT-1080 = experiment: cytotoxicity in HT1080 fibrosarcoma cells, cell-based, fluorescence readout (AID 620); assay type: functional; details: Homo sapiens
[13] = microbe, parasite or virus in culture; assay type: functional; details: Mycobacterium tuberculosis
[14] = ADAM10 inhibitors, peptide cleavage, dose response, biochemical, QFRET (AID 743254);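 also: ADAM10 enzyme with the DM2 quenched FRET peptide as substrate; EDANS fluorescence gain as the protease cuts the substrate; inhibitor potency against ADAM10 proteolytic activity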
[15] = target: Disintegrin and metalloproteinase domain-containing protein 17 (Homo sapiens, UniProt P78536); experiment: ADAM17 protease inhibitors, dose response, counter-screen for ADAM10 exosite inhibitor project, biochemical, quenched FRET substrate (AID 743253)
BJ [16] = experiment: cytotoxicity toward BJ-TERT fibroblasts, dose response, cell-based, RAS-independent, luminescence (AID 1933); assay type: functional; details: Homo sapiens
BJ [17] = experiment: cells; assay type: functional, cell-based; details: Homo sapiens
BJ [18] = experiment: cytotoxicity toward BJ-TERT-LT-ST fibroblasts, dose response, cell-based, RAS-independent, luminescence (AID 1935); assay type: functional; details: Homo sapiens;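 also: BJ fibroblasts immortalized with TERT plus LT and ST oncogenes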
[19] = cytotoxicity toward DRD oncogenic fibroblasts, dose response, cell-based, non-viral oncogenic, luminescence (AID 1934); assay type: functional; details: Homo sapiens

T4 sequence (P08659 whole entry): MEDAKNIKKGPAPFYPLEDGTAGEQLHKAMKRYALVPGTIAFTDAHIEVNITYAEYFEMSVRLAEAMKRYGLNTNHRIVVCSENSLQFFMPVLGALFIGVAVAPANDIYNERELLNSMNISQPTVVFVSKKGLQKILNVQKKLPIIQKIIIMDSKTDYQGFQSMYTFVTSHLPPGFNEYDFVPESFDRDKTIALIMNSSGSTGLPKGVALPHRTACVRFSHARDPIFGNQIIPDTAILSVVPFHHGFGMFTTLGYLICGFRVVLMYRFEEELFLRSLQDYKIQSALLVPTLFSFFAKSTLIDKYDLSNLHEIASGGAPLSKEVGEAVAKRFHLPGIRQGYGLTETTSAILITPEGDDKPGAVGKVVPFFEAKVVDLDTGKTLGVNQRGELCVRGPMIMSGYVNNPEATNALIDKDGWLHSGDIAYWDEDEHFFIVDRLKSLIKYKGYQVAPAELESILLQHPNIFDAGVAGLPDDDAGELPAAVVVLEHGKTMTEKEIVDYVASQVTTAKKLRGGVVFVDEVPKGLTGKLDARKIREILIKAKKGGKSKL
Chain of Peroxisome proliferator-activated receptor gamma/Nuclear receptor coactivator 2 (P37231 whole entry): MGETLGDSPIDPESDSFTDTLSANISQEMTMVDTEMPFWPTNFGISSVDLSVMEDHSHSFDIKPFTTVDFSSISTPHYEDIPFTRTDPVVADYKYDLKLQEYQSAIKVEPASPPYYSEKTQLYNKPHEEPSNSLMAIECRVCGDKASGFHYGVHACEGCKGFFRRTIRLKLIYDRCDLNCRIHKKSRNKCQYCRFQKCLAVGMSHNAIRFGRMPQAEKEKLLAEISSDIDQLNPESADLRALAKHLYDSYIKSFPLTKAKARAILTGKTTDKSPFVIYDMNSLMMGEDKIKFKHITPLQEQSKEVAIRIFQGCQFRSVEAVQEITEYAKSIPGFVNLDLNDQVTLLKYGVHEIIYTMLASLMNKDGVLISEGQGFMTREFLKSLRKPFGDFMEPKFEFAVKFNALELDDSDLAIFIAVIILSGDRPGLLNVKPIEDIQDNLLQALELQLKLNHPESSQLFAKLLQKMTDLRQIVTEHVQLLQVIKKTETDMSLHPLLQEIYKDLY
Chain of Peroxisome proliferator-activated receptor gamma/Nuclear receptor coactivator 2 (Q15596 whole entry, further chain): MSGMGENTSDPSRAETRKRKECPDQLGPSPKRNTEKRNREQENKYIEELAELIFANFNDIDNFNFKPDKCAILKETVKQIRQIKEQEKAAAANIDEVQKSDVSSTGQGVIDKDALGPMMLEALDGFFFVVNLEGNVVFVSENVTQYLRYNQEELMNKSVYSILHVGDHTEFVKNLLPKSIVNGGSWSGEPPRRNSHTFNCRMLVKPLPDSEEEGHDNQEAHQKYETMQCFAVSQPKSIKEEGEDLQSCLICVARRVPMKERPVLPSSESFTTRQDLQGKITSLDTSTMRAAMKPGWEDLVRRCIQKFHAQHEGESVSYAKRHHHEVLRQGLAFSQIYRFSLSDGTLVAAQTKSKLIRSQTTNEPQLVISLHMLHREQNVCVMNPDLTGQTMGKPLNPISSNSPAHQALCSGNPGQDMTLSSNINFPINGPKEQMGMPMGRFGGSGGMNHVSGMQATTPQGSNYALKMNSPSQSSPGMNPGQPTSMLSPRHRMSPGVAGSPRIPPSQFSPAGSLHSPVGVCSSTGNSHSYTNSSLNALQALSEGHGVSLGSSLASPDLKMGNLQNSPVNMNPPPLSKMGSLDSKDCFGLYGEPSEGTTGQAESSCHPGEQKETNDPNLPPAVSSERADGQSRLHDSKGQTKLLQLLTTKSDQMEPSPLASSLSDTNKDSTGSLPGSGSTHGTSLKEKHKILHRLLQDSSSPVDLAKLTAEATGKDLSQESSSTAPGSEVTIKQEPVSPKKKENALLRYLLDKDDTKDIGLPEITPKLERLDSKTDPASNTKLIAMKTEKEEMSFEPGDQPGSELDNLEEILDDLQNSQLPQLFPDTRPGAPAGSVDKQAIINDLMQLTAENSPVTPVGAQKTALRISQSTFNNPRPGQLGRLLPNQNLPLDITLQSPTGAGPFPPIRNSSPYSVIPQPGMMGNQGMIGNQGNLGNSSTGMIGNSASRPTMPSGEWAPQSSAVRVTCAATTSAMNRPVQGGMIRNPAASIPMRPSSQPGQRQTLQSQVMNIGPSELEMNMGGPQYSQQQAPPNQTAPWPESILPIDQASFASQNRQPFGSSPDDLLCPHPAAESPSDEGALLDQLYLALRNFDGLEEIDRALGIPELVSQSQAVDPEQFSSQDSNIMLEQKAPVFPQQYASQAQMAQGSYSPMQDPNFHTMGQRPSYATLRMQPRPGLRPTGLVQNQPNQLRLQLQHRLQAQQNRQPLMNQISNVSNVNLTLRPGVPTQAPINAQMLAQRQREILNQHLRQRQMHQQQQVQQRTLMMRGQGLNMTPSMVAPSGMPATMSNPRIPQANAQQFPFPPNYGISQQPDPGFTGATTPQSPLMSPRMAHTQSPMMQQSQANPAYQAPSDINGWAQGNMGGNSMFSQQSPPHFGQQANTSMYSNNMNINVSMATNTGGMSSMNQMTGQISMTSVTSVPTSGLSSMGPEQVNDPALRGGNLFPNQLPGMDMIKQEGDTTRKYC
Chain of Peroxisome proliferator-activated receptor gamma/Nuclear receptor coactivator 1 (P37231 whole entry): as the sequence (P37231 whole entry) above
Chain of Peroxisome proliferator-activated receptor gamma/Nuclear receptor coactivator 1 (Q15788 whole entry, further chain): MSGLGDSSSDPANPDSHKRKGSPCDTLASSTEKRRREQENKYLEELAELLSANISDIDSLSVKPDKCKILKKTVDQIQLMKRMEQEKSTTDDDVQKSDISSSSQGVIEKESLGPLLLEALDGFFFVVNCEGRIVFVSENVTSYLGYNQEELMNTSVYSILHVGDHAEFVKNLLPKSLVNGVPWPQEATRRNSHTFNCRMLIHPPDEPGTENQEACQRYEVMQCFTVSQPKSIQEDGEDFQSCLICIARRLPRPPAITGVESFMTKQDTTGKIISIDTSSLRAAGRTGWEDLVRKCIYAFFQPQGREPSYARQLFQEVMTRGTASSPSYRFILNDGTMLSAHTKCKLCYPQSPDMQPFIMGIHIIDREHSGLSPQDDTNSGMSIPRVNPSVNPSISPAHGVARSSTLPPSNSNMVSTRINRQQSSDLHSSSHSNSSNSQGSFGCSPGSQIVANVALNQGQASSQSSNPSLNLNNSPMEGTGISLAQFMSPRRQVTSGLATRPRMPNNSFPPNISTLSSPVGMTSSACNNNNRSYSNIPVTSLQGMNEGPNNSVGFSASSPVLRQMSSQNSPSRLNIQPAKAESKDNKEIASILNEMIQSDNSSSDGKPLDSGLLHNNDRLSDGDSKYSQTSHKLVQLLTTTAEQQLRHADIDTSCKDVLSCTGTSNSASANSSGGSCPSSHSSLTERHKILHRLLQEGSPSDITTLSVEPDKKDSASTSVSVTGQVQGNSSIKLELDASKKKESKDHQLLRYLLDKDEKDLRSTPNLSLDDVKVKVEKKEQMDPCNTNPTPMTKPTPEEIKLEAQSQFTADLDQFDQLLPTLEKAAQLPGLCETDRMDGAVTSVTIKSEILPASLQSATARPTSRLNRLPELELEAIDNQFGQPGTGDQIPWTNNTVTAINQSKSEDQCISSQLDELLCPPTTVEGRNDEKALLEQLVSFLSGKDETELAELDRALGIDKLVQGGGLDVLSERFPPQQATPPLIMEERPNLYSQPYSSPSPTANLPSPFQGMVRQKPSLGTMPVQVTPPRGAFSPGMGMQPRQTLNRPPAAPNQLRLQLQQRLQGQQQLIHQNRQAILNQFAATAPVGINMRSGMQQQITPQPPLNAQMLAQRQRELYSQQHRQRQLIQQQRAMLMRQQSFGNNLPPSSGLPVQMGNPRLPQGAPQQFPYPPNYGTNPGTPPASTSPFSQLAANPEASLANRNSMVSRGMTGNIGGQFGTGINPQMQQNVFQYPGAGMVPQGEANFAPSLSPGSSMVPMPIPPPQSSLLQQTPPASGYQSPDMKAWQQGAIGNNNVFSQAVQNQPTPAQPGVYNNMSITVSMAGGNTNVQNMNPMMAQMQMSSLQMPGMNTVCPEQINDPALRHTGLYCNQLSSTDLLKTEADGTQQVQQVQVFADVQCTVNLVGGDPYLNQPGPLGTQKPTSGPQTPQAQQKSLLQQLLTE

With `COc1ccc(NCCNc2ccc(OC)cc2)cc1` the EC50 [1] was > 79.4 µM (not active), the EC50 [2] was > 79.4 µM (not active) and the EC50 [3] was > 79.4 µM (not active).

In the case of `Clc1ccccc1Cn1nnc(-c2ccccc2)n1`, the IC50 [4] is reported as > 67.5 µM (inactive) and the EC50 [5] is reported as > 67.5 µM (inactive).

With `O=C(CSc1nc2cccnc2n1Cc1ccccc1)NCc1ccco1` the EC50 [1] was > 79.4 µM (not active), the EC50 [2] was > 79.4 µM (not active) and the EC50 [3] was > 79.4 µM (not active).

In the case of `CC(=O)c1c(COC(=O)c2ccc(Cl)cc2)nc2ccccc2[n+]1[O-]`, the EC50 [6] is reported as > 120 µM (not active).

With `Cc1cccc(N(C(=O)c2snc(C(N)=O)c2N)C(C(=O)NCC2CCCO2)c2ccc(N(C)C)cc2)c1C` (configuration not stated) the IC50 [7] was 2.73 µM (active) and the IC50 [8] was > 111 µM (not active).

In the case of `COc1ccc(C(=O)/C=C/Nc2cc(C)ccn2)cc1`, the EC50 [9] is reported as 1.69 µM (active), the EC50 [10] is reported as 7.6 µM (active) and the EC50 [11] is reported as > 67.6 µM (inactive). The EC50 (cells) was > 67.6 µM (inactive).

With `CCOC(=O)c1s/c(=N\C(=O)c2ccc(Cl)s2)n(C)c1C` the EC50 [11] was > 67.5 µM (inactive) and the EC50 (cells) was > 67.5 µM (inactive).

With `O/C(=C\C=N\c1cccc(O)c1)c1ccccc1` the EC50 [12] was 1.03 µM (active), the EC50 (HT-1080) was > 50 µM (not active) and the EC50 [11] was > 67.6 µM (inactive). The EC50 (cells) was > 67.6 µM (inactive).

In the case of `Fc1ccccc1-c1ccc(/C=N/Nc2nc3ccccc3[nH]2)o1`, the IC50 [4] is reported as > 67.5 µM (inactive) and the EC50 [5] is reported as > 67.5 µM (inactive).

In the case of `O=C(NC(C(=O)N/N=C/c1cccc2ccccc12)c1nnc(O)c2ccccc12)c1ccccc1` (configuration not stated), the CC50 [13] is reported as > 40 µM (active), the IC50 [14] is reported as > 69.5 µM (inactive) and the IC50 [15] is reported as > 69.5 µM (inactive).

For `COc1ccc(-c2nc3ccccc3[nH]2)cc1`, the EC50 (BJ [16]) was 8.49 µM (active), the EC50 [12] was 11 µM (active) and the EC50 (BJ [17]) was 19.1 µM (active). For the same compound, the EC50 (HT-1080) was 20.3 µM (active), the EC50 (BJ [18]) was 22.7 µM (active) and the EC50 [19] was 9.35 µM (active).
